Common to all, as to type: cell-based
For assay [1], the system named is Ba/F3 G719A (EGFR mutation). As to the kind of experiment: Proliferation inhibitory activity, Ba/F3 cells expressing EGFR G719A. As to conditions: Mus musculus, BaF3, 72 hours, CellTiter-Glo. On the procedure:
(§1) The following experiments were performed to evaluate the inhibitory activity of the compounds according to the present disclosure on Ba/F3 proliferation expressing EGFR C797S, L861Q, G719A, S768I, L718Q, and/or G724S mutations.
(§2) For Ba/F3 cells, RPMI-1640 containing 10% FBS and 5 ng/ml IL-3 (R&D Systems) was used. Transduced Ba/F3 cells were cultured after adding 1 μg/ml puromycin (Invitrogen) to the same medium.
(§3) At 24 hours before treatment with the compounds, 3000 to 5000 cells were aliquoted into each well of a white clear bottom 96 well plate (Corning). The compounds were diluted in dimethyl sulfoxide (3 times dilution, 12 concentrations in total), and injected in an amount of 1 μl so that the final concentration was 0.2 nM to 5 uM. For measurement of living cells, after 72 hours of compound treatment, the cells were stored at room temperature for 10 min using CellTiter-Glo luminescentcell-viability reagent (Promega), and then luminescence intensity was measured using a reader (SynergyNeo, Biotek). Each test was repeated three times. Result values were calculated as the cell growth rate (%) compared to the control. The graphs were created using GraphPad Prism version 8.3.0 program and the GI50 values were calculated.

The test system of assay [2] is Ba/F3 cells expressing EGFR Del19/C797S (EGFR DC). In words: Proliferation inhibitory activity, Ba/F3 cells expressing EGFR Del19/C797S (CellTiter-Glo). Conditions: Mus musculus, BaF3, 72 hours of compound treatment. The method in brief:
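Viability after 72 h of compound exposure was measured by luminescence (CellTiter-Glo) in Ba/F3 lines transduced with mutant EGFR. Final concentrations spanned 0.2 nM–5 μM over 12 threefold steps. Growth relative to untreated control gave GI50 values; each test was run three times.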
Background: In ATP-based viability assays light output follows the ATP content of the culture.

For assay [3], the system named is Ba/F3 cells expressing EGFR L858R/C797S (EGFR LC). In words: Proliferation inhibitory activity, Ba/F3 cells expressing EGFR L858R/C797S (CellTiter-Glo). As to conditions: Mus musculus, BaF3, 72 hours of compound treatment. The protocol: as §1, §2, §3
Assay [4] deals with Ba/F3 S768I (EGFR mutation). As to the kind of experiment: Proliferation inhibitory activity, Ba/F3 cells expressing EGFR S768I. As to conditions: Mus musculus, BaF3, 72 hours, CellTiter-Glo. On the procedure:
as §1, §2, §3

In assay [5] the test system is Ba/F3 L861Q (EGFR mutation). In words: Proliferation inhibitory activity, Ba/F3 cells expressing EGFR L861Q. As to conditions: Mus musculus, BaF3, 72 hours, CellTiter-Glo. On the procedure:
as §1, §2, §3

As a reminder, the GI50 is the concentration that inhibits growth by half. For the molecule `COc1cc(Nc2cc(N3OCC[C@@H]3c3ccccc3)ncn2)ccc1N1CCC(N2CCN(C)CC2)CC1` [Example 4, (R)—N-(3-methoxy-4-(4-(4-methylpiperazin-1-yl)piperidin-1-yl)phenyl)-6-(3-phenylisoxazolidin-2-yl)pyrimidin-4-amine], the GI50 in assay [1] is less than 50 nM; in assay [2], less than 50 nM; in assay [3], less than 50 nM; in assay [4] it was 50 to 500 nM; in assay [5] it was less than 50 nM.
For `CN1CCN(C2CCN(c3cc(Nc4cc(N5OCC[C@@H]5c5cc(F)cc(F)c5)ncn4)cc(S(C)(=O)=O)c3)CC2)CC1` [Example 11, (R)-6-(3-(3,5-difluorophenyl)isoxazolidin-2-yl)-N-(3-(4-(4-methylpiperazin-1-yl)piperidin-1-yl)-5-(methylsulfonyl)phenyl)pyrimidin-4-amine], the GI50 in assay [2] and in assay [3] was 50 to 500 nM throughout.
Consider `COc1cc(N2CCC(N3CCN(C)CC3)CC2)c(-c2cnn(C)c2)cc1Nc1cc(N2OCC[C@@H]2c2cc(F)cc(F)c2)ncn1` [Example 8, (R)-6-(3-(3,5-difluorophenyl)isoxazolidin-2-yl)-N-(2-methoxy-5-(1-methyl-1H-pyrazol-4-yl)-4-(4-(4-methylpiperazin-1-yl)piperidin-1-yl)phenyl)pyrimidin-4-amine], for which the GI50 in assay [2] and in assay [3] was less than 50 nM throughout.
Take `COc1cc(N2CCC(N3CCN(C)CC3)CC2)ccc1Nc1cc(N2OCC[C@@H]2c2ccccc2)ncn1` [Example 5, (R)—N-(2-methoxy-4-(4-(4-methylpiperazin-1-yl)piperidin-1-yl)phenyl)-6-(3-phenylisoxazolidin-2-yl)pyrimidin-4-amine]: the GI50 in assay [2] and in assay [3] was less than 50 nM in each case.
On to `COc1cc(Nc2cc(N3OCC[C@@H]3c3ccccc3)ncn2)ccc1N1CCN(C2CCN(C)CC2)CC1` [Example 102, (R)—N-(3-methoxy-4-(4-(1-methylpiperidin-4-yl)piperazin-1-yl)phenyl)-6-(3-phenylisoxazolidin-2-yl)pyrimidin-4-amine], for which the GI50 in assay [2] and in assay [3] was less than 50 nM in each case.
In the case of `COc1cc(N2CCC(N3CCN(C)CC3)CC2)c(Cl)cc1Nc1cc(N2OCC[C@@H]2c2ccccc2)ncn1` [Example 132, (R)—N-(5-chloro-2-methoxy-4-(4-(4-methylpiperazin-1-yl)piperidin-1-yl)phenyl)-6-(3-phenylisoxazolidin-2-yl)pyrimidin-4-amine], the GI50 in assay [2] and in assay [3] was less than 50 nM throughout.
On to `COc1cc(Nc2cc(N3OCC[C@@H]3c3cccc(F)c3F)ncn2)ccc1N1CCC(N2CCN(C)CC2)CC1` [Example 128, (R)-6-(3-(2,3-difluorophenyl)isoxazolidin-2-yl)-N-(3-methoxy-4-(4-(4-methylpiperazin-1-yl)piperidin-1-yl)phenyl)pyrimidin-4-amine], for which the 50% growth inhibitory concentration (GI50) in assay [2] and in assay [3] was less than 50 nM each time.
As to `CN(C)C1CCN(C2CCN(c3ccc(Nc4cc(N5OCC[C@@H]5c5ccccc5)ncn4)cc3)CC2)CC1` [Example 84, (R)—N,N-dimethyl-1′-(4-((6-(3-phenylisoxazolidin-2-yl)pyrimidin-4-yl)amino)phenyl)-[1,4′-bipiperidin]-4-amine], the GI50 in assay [2] and in assay [3] was less than 50 nM each time.
For the molecule `Cc1cc(Nc2cc(N3OCC[C@@H]3c3ccc(F)cc3F)ncn2)ccc1N1CCC(N2CCN(C)CC2)CC1` [Example 104, (R)-6-(3-(2,4-difluorophenyl)isoxazolidin-2-yl)-N-(3-methyl-4-(4-(4-methylpiperazin-1-yl)piperidin-1-yl)phenyl)pyrimidin-4-amine], the GI50 in assay [2] and in assay [3] was less than 50 nM each time.
Regarding `COc1cc(N2CCC(N3CCN(C)CC3)CC2)ccc1Nc1cc(N2OCC[C@@H]2c2ccc(Cl)c(F)c2)ncn1` [Example 129, (R)-6-(3-(4-chloro-3-fluorophenyl)isoxazolidin-2-yl)-N-(2-methoxy-4-(4-(4-methylpiperazin-1-yl)piperidin-1-yl)phenyl)pyrimidin-4-amine], the GI50 in assay [2] and in assay [3] was less than 50 nM throughout.
As for `COc1cc(N2CCOCC2)c(-c2cnn(C)c2)cc1Nc1cc(N2OCC[C@@H]2c2cc(F)cc(F)c2)ncn1` [Example 7, (R)-6-(3-(3,5-difluorophenyl)isoxazolidin-2-yl)-N-(2-methoxy-5-(1-methyl-1H-pyrazol-4-yl)-4-morpholinophenyl)pyrimidin-4-amine], the concentration for 50% growth inhibition (GI50) in assay [2] and in assay [3] was 50 to 500 nM throughout.
For the molecule `CN1CCN(c2ccc(Nc3cc(N4OCC[C@@H]4c4ccccc4)ncn3)cc2)CC1` [Example 1, (R)—N-(4-(4-methylpiperazin-1-yl)phenyl)-6-(3-phenylisoxazolidin-2-yl)pyrimidin-4-amine], the GI50 in assay [2] and in assay [3] was less than 50 nM in each case.
For `CN1CCN(c2cc(Nc3cc(N4OCC[C@@H]4c4cc(F)cc(F)c4)ncn3)cc(S(C)(=O)=O)c2)CC1` [Example 13, (R)-6-(3-(3,5-difluorophenyl)isoxazolidin-2-yl)-N-(3-(4-methylpiperazin-1-yl)-5-(methylsulfonyl)phenyl)pyrimidin-4-amine], the GI50 in assay [2] and in assay [3] was 50 to 500 nM throughout.
In the case of `CN1CCN(c2cc(Nc3cc(N4OCC[C@@H]4c4cc(F)cc(F)c4)ncn3)cc(C(C)(C)C#N)c2)CC1` [Example 15, (R)-2-(3-((6-(3-(3,5-difluorophenyl)isoxazolidin-2-yl)pyrimidin-4-yl)amino)-5-(4-methylpiperazin-1-yl)phenyl)-2-methylpropanenitrile], the GI50 in assay [2] and in assay [3] was less than 50 nM each time.
`CS(=O)(=O)c1cc(Nc2cc(N3OCC[C@@H]3c3cc(F)cc(F)c3)ncn2)cc(N2CCC(N3CCOCC3)CC2)c1` [Example 12, (R)-6-(3-(3,5-difluorophenyl)isoxazolidin-2-yl)-N-(3-(methylsulfonyl)-5-(4-morpholinopiperidin-1-yl)phenyl)pyrimidin-4-amine]: the GI50 in assay [2] and in assay [3] was 50 to 500 nM in each case.

Values taken from patent US12534457B2, “Heteroaryl derivative compounds, and uses thereof” (Voronoi Inc., priority 2021, dated 2026).
